Results published in the supplement of paper PMC3974653.
Where a name gives a salt, the structure may show the parent alone.

These compounds were tested on MTT (mouse pheochromocytoma) (assay: IC50 of cell viability (ATP content)). Settings: (24 or 48 h).
How it was run: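 MTT mouse pheochromocytoma cells were seeded into white 1536-well plates at 5 µl per well from a 200,000 cells/ml suspension in DMEM with 5% FBS and 1% horse serum, then cultured overnight at 37°C, 5% CO2. A pintool added 23 nl of library compound in DMSO at 8 concentrations (final 0.5 nM to 46 µM) for 24 or 48 hrs, and CellTiter-Glo ATP luminescence was read after 15 minutes. Signals were scaled so that positive-control wells equalled 100% and DMSO wells 0%. IC50 values were derived by fitting a four-parameter logistic curve.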

Compound	IC50 of cell viability [µM]
CN(C)CC[N]1N=NN=C1SC\C2=C(\[N@]3[C@@H](SC2)[C@H](NC(=O)CC4=CSC(=N4)N)C3=O)C(O)=O [Cefotiam hydrochloride]	> 46
CO[C@@]1(NC(=O)Cc2cccs2)C(=O)N2C(C(=O)O)=C(COC(N)=O)CS[C@@H]21 [Cefoxitin sodium salt]	> 46
COCC1=C(C(=O)OC(C)OC(=O)OC(C)C)N2C(=O)C(NC(=O)/C(=N\OC)c3csc(N)n3)C2SC1 (stereo not drawn) [Cefpodoxime proxetil]	> 46
COC/1=C(/N2[C@H](SC1)[C@H](NC(=O)C(N)C/3\C=C/C/C=C3)C2=O)C(O)=O (stereo partly drawn) [Cefradoxil]	> 46
[Na+].NC(=O)C1=CC=[N+](C\C2=C(\[N@]3[C@@H](SC2)[C@H](NC(=O)[C@H](C4=CC=CC=C4)[S]([O-])(=O)=O)C3=O)C([O-])=O)C=C1 [Cefsulodin sodium salt]	> 46
CC(C)(O/N=C(\C(=O)N[C@@H]1C(=O)N2C(C(=O)[O-])=C(C[n+]3ccccc3)CS[C@@H]12)c1csc(N)n1)C(=O)O.O.O.O.O.O [Ceftazidime pentahydrate]	> 46
O=C(Cn1cnnn1)N[C@@H]1C(=O)N2C(C(=O)O)=C(CSc3nncs3)CS[C@H]12 [Ceftezole sodium]	> 46
CO/N=C(/C(=O)N[C@@H]1C(=O)N2C(C(=O)O)=C(COC(N)=O)CS[C@H]12)c1ccco1 [Cefuroxime Free Acid]	> 46
Cc1ccc(-c2cc(C(F)(F)F)nn2-c2ccc([S+](N)(=O)[O-])cc2)cc1 [Celecoxib]	> 46
CC(=O)OC[C@H]1O[C@@H](O[C@H]2[C@H](O)[C@@H](OC(=O)c3ccccc3C(=O)O)[C@H](O)O[C@@H]2COC(C)=O)[C@H](O)[C@@H](OC(=O)c2ccccc2C(=O)O)[C@@H]1O [Cellulose Acetate Phthalate]	> 46
CC(=O)OC\C1=C(\[N@]2[C@@H](SC1)[C@H](N)C2=O)C(O)=O [Cephalosporanic acid, 7-amino]	> 46
[Na+].CC(=O)OC\C1=C(\[N@]2[C@@H](SC1)[C@H](NC(=O)CSC3=CC=NC=C3)C2=O)C([O-])=O [Cephapirin sodium salt]	> 46
CC1=C(C(=O)O)N2C(=O)[C@@H](NC(=O)[C@H](N)C3=CCC=CC3)[C@H]2SC1 [Cephradine]	> 46
CNC1(c2ccccc2Cl)CCCCC1=O (stereo not drawn) [Cetamina]	> 46
O=C(O)COCCN1CCN([C@@H](c2ccccc2)c2ccc(Cl)cc2)CC1 [Cetirizine dihydrochloride]	> 46
[H]C1(CN)CC[C@@]([H])(CC1)C(=O)OC2=CC=C(CCC(O)=O)C=C2 (stereo not drawn) [Cetraxate hydrochloride]	> 46
C[C@H](CCC(=O)O)[C@@H]1CC[C@H]2[C@@H]3[C@@H](CC[C@@]21C)[C@@]1(C)CC[C@H](O)C[C@@H]1C[C@@H]3O [Chenodiol]	> 46
Cc1ccc(S(=O)(=O)[N-]Cl)cc1.O.O.O.[Na+] [Chloramine T trihydrate]	> 46
CCCCCCCCCCCCCCCC(=O)OCC(NC(=O)C(Cl)Cl)C(O)c1ccc([N+](=O)[O-])cc1 (stereo not drawn) [Chloramphenicol palmitate]	> 46
O=C(O)CCC(=O)OC[C@@H](NC(=O)C(Cl)Cl)[C@H](O)c1ccc([N+](=O)[O-])cc1 [Chloramphenicol succinate sodium salt]	> 46
O=C(N[C@H](CO)[C@H](O)c1ccc([N+](=O)[O-])cc1)C(Cl)Cl [Chloramphenicol]	> 46
N=C(NCCCCCCNC(=N)NC(=N)Nc1ccc(Cl)cc1)NC(=N)Nc1ccc(Cl)cc1 [Chlorhexidine]	> 46
Oc1ccc(Cl)c2c1CCC2 [Chlorindanol]	> 46

Compound	IC50 of cell viability [µM]
CC(=O)[C@@]1(O)CC[C@H]2[C@@H]3C=C(Cl)C4=CC(=O)CC[C@]4(C)[C@H]3CC[C@@]21C [Chlormadinone]	> 46
CN1C(=O)CC[S+](=O)([O-])C1c1ccc(Cl)cc1 (stereo not drawn) [Chlormezanone]	> 46
ClC(Cl)Cl [Chloroform]	> 46
CN(C)CCN(Cc1ccc(Cl)cc1)c1ccccn1 [Chloropyramine hydrochloride]	> 46
N[S+]([O-])(=O)C1=C(Cl)C=C2\N=C/N[S+]([O-])(=O)C2=C1 [Chlorothiazide]	> 46
COc1ccc(C(Cl)=C(c2ccc(OC)cc2)c2ccc(OC)cc2)cc1 [Chlorotrianisene]	> 46
Cc1cc(O)cc(C)c1Cl [Chloroxylenol]	> 46
NC(=O)OC[C@H](O)COc1ccc(Cl)cc1 [Chlorphensin carbamate]	> 46
CC(C)(N)Cc1ccc(Cl)cc1 [Chlorphentermine hydrochloride]	> 46
CCCNC(=O)N[S+](=O)([O-])c1ccc(Cl)cc1 [Chlorpropamide]	> 46
CN(C)CC/C=C1\c2ccccc2Sc2ccc(Cl)cc21 [Chlorprothixene]	> 46
CN(C)[C@H]\1[C@@H]2C[C@H]3\C(=C(\O)[C@@]2(O)C(=O)\C(=C1O)C(N)=O)C(=O)C4=C(O)C=CC(=C4[C@]3(C)O)Cl [Chlortetracycline hydrochloride]	> 46
COC(=O)c1c(Cl)c(Cl)c(C(=O)OC)c(Cl)c1Cl [Chlorthal-dimethyl]	> 46
N[S+](=O)([O-])c1cc([C@]2(O)NC(=O)c3ccccc32)ccc1Cl [Chlorthalidone]	> 46
C[C@H](CCC(=O)O)[C@H]1CC[C@@H]2[C@H]3[C@@H](C[C@@H](O)[C@]21C)[C@]1(C)CC[C@H](O)C[C@@H]1C[C@@H]3O [Cholic Acid]	> 46
CC(=O)[O-].C[N+](C)(C)CCO [Cholin acetate]	> 46
C[N+](C)(C)CCO [Choline bromide]	> 46
CCOC(=O)COc1ccc2c(C)c(CC[NH+](CC)CC)c(=O)oc2c1 [Chromonar hydrochloride]	> 46
Cc1cc(O)c2c(O)c3c(O)cccc3cc2c1 [Chrysarobin]	> 46
N#CCC(=O)NN [Ciacetacida]	> 46
c1ccc(C2(c3ccccc3)CC2C2=NCCN2)cc1 (stereo not drawn) [Cibenzoline succinate]	> 46
COc1cc(/C=C2\CCC/C(=C\c3ccc(O)c(OC)c3)C2=O)ccc1O [Ciclovalona]	> 46
CC1(COc2ccc(CC3SC(=O)NC3=O)cc2)CCCCC1 (stereo not drawn) [Ciglitizone]	> 46

Compound	IC50 of cell viability [µM]
CCOC(=O)[C@H](CCc1ccccc1)N[C@H]1CCCN2CCC[C@@H](C(=O)O)N2C1=O [Cilazapril]	> 46
COCCOC(=O)C1=C(C)NC(C)=C(C(=O)OC/C=C/c2ccccc2)C1c1cccc([N+](=O)[O-])c1 (stereo not drawn) [Cilnidipine]	> 46
CN(C1CCCCC1)C(=O)CCCOC2=CC\3=C(NC(=O)\C=C3)C=C2 [Cilostamide]	> 46
O=C(/C=C/c1cccc(F)c1)NC1CC1 [Cinflumide]	> 46
OC/C=C/c1ccccc1 [Cinnamyl alcohol]	> 46
C(=C/c1ccccc1)/CN1CCN(C(c2ccccc2)c2ccccc2)CC1 [Cinnarizine]	> 46
CCN1\N=C(\C(O)=O)C(=O)C2=C1C=C3OCOC3=C2 [Cinoxacin]	> 46
CC(C)(Oc1ccc(C2CC2(Cl)Cl)cc1)C(=O)O (stereo not drawn) [Ciprofibrate]	> 46
OC(=O)\C1=C\N(C2CC2)C3=CC(=C(F)C=C3C1=O)N4CCNCC4 [Ciprofloxacin hydrochloride]	> 46
COc1cc(N)c(Cl)cc1C(=O)N[C@@H]1CCN(CCCOc2ccc(F)cc2)C[C@H]1OC [Cisapride]	> 46
O=C(O)CC(O)(CC(=O)O)C(=O)O [Citric acid]	> 46
CN1C(=O)CN2CCc3ccccc3C2c2cc(Cl)ccc21 (stereo not drawn) [Clazolam]	> 46
COc1cc(N)c(Cl)cc1C(=O)NC1CCN(Cc2ccccc2)CC1 [Clebopride maleate]	> 46
CN1CCC[C@@H]1CCO[C@](C)(c1ccccc1)c1ccc(Cl)cc1 [Clemastine fumarate]	> 46
Clc1ccc(Cn2c(CN3CCCC3)nc3ccccc32)cc1 [Clemizole hydrochloride]	> 46
C[N@@+]12CCC(CC1)[C@@H](C2)OC(=O)C(O)(C3=CC=CC=C3)C4=CC=CC=C4 [Clidinium bromide]	> 46
CC(C)(C)C(=O)C(Oc1ccc(Cl)cc1)n1ccnc1 (stereo not drawn) [Climbazole]	> 46
CCC[C@@H]1CC(C(=O)NC(C2O[C@H](SC)C(OP(=O)(O)O)[C@H](O)[C@H]2O)[C@H](C)Cl)N(C)C1 (stereo partly drawn) [Clindamycin 2-phosphate]	> 46
CCC[C@H]1C[C@H](C(=O)N[C@@H]([C@@H]2O[C@@H](SC)[C@@H](O)[C@@H](O)[C@H]2O)[C@H](C)Cl)N(C)C1 [Clindamycin hydrochloride]	> 46
CCCCCCCCCCCCCCCC(=O)O[C@@H]1[C@@H](O)[C@@H](O)C(C(NC(=O)[C@H]2C[C@@H](CCC)CN2C)C(C)Cl)O[C@@H]1SC (stereo partly drawn) [Clindamycin palmitate]	> 46
C[C@@H]1C[C@@H]2[C@H]3C[C@@H](F)\C4=C\C(=O)\C=C/[C@]4(C)[C@@]3(Cl)[C@@H](O)C[C@@]2(C)[C@@H]1C(=O)COC(=O)C(C)(C)C [Clocortolone pivalate]	> 46
O=P([O-])(O)C(Cl)(Cl)P(=O)([O-])O.[Na+].[Na+] [Clodronic acid]	> 46
